In US5525329A, “Inhibition of phosphodiesterase in olfactory mucosa” (priority 1995, dated 1996):
Entries after “also recorded” stand apart in the source; their conditions may differ. Like-named read-outs stand apart in the source and are kept apart here. Blank lines part the entries; values can stand above or below the compound they belong to.

What was measured:
[1] = system: phosphodiesterase, olfactory mucosa; assay: PDE activity in homogenates of olfactory mucosa (turbinates); type: biochemical, rat; conditions: for reduction of PDE activity / inhibition of cAMP hydrolysis / inhibition of cGMP hydrolysis: 10 μM drug; for inhibition of cAMP hydrolysis: 1 μM cAMP, no added Ca^2+
Protocol: (§1) Assays were performed with 100 μM Ca^2+ (hatched bars) or with 100 μM EGTA (solid bars).
(§2) Enzymol. […] Tissue was warmed to 37° C. and 100 μl aliquots containing 1-2 […] protein added to initiate the assay which was conducted for 20 minutes at 37° C. […] For experiments at 100 μM free Ca^2+, the reaction mix included 0.2 mM CaCl2 and 50 nM calmodulin (Sigma) where appropriate. Low Ca^2+ conditions were achieved by addition of 2.0 mM EGTA. Ca^2+ levels were measured against standards using a conductivity meter and Ca^2+ electrode (Biomedical Instrumentation Group, Philadelphia, Pa.). Following incubation, reactions were stopped by boiling for 1.5 minutes and cooling on ice, whereupon 100 μl aliquots of 5'-nucleotidase (10 units/ml in 0.1M Tris pH 8.1) were added and samples incubated for 30 minutes at 37° C. Incubation mixtures were applied to QAE-Sephadex columns pre-equilibrated with 30 mM ammonium formate, with flow through and eluate from two 1 ml washes collected in plastic scintillation vials.
Subcellular fractions were obtained as described below. Rats were anesthetized with carbon dioxide, decapitated and tissue dissected. Nasal turbinates were dissected intact and consisted of the entire olfactory mucosa, including endothelial tissue, olfactory epithelium, and overlying mucous. […] For fractionation, tissue was first centrifuged at 500×g for 5 minutes in a Sorvall RC 2B superspeed refrigerated centrifuge (DuPont, Wilmington, Del.). The crude particulate (P1) pellet was discarded and the supernatant (S1) centrifuged 20 minutes at 28,000×g. The resultant pellet (P2) was washed in BHB, centrifuged and resuspended in 5 ml BHB, and designated the membrane fraction. The supernatant (S2) was centrifuged 50 minutes at 230,000×g in Beckman L8-M ultracentrifuge (Fullerton, Calif.). The pellet (P3) was washed in BHB, recentrifuged in an ultracentrifuge, and resuspended in 2 ml BHB as the microsomal fraction. The supernatant (S3) was saved as the soluble fraction and visually inspected for absence of cloudiness or lipid droplets. In all cases, protein was assayed by the Bradford method using Coomassie Protein Assay Reagent (Pierce, Rockford, Ill.) and BSA as standard.

[2] = system: cGMP-inhibited PDE; conditions: reported in literature; cited from earlier work
[3] = biological target: T1, phosphodiesterase, olfactory cilia (Rattus norvegicus, UniProt Q63421); assay: PDE activity in olfactory cilia; type: biochemical
T1 construct: Tissue was prepared either as cilia, using the method of Sklar et al., (1986); from tissue; host or cells: olfactory cilia preparation
T1 sequence (Q63421 whole entry): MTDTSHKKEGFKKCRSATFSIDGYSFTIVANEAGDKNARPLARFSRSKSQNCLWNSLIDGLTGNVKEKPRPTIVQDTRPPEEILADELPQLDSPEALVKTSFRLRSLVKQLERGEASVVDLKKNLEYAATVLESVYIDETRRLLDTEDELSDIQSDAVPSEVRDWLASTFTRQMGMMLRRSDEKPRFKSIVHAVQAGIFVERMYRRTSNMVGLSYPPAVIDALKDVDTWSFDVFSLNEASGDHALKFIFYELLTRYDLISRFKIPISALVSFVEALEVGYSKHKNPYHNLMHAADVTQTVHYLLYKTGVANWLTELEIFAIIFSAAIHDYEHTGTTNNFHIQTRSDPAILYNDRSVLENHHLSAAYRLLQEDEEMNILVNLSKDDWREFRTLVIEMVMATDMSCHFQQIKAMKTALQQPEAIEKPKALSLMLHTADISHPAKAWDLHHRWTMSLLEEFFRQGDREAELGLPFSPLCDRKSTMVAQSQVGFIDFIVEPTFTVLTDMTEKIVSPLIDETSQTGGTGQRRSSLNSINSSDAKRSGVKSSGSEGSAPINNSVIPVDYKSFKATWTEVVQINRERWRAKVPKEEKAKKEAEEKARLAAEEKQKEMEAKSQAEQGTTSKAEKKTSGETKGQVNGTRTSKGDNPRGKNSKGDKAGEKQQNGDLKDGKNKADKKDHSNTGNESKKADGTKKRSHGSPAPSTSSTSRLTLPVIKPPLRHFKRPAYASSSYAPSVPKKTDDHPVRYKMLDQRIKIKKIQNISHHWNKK
Protocol: as §1
(§3) Activity is graphed as a function of total cyclic nucleotides present using olfactory cilia, or mucosa with 1 μM cGMP.
(§4) FIG 4B is a graph of activity, 1 μM cGMP used as substrate: 100 μM EGTA (open circles); 100 μM Ca^2+ (filled circles); 100 μM Ca^2+ in the presence of 200 μM W-7 (filled squares).
as §2

[4] = system: high affinity cAMP-selective form of PDE; conditions: reported in literature, cited from earlier work
[5] = system: phosphodiesterase, olfactory cilia; assay: PDE activity in olfactory cilia; type: biochemical, rat
Protocol: as §1, §3, §4, §2

[6] = biological target: T1, phosphodiesterase, olfactory cilia; assay: PDE activity in olfactory cilia; type: biochemical; remark: listed apart in the source
[7] = olfactory mucosa, 1 μM cGMP, 100 μM EGTA
[8] = 10 μM drug, presence or absence of Ca^2+

Compound: CCCCOc1cc(CC2CNC(=O)N2)ccc1OC (stereo not drawn) [Ro20-1724]
- inhibition of olfactory PDE in the presence of calcium ([1]; olfactory PDE, presence of calcium): about 15%
- inhibition of cAMP hydrolysis ([1]; olfactory mucosa, 100 μM EGTA): 66%
- inhibition of cGMP hydrolysis [1, 7]: Neither 10 μM rolipram nor 10 μM Ro20-1724 inhibit cGMP hydrolysis
- inhibition of PDE in cilia [3, 8]: neither rolipram (10 μM) nor Ro20-1724 (10 μM) inhibit PDE
- selective inhibition of the high affinity cAMP-selective form of PDE [4]: selectively inhibit the high affinity cAMP-selective form of PDE
- selective inhibition of the high affinity cAMP-selective form of PDE ([4]; listed as Ro 20-1724): selective inhibitor of calcium/calmodulin-independent, high affinity PDE

Compound: NCCCCCCNS(=O)(=O)c1cccc2c(Cl)cccc12 [W-7]
- reduction of stimulation by calmodulin ([5]; cilia, 100 μM W-7 (cAMP) or 200 μM W-7 (cGMP), 100 μM Ca^2+): substantially reduces stimulation by calmodulin

Compound: Cc1[nH]c(=O)c(C#N)cc1-c1ccncc1 [milrinone]
- reduction of PDE activity ([1]; 100 μM Ca^2+): about 15%
- reduction of PDE activity ([1]; 100 μM EGTA): about 30%
- selectivity for cGMP-inhibited PDE [2]: selective for cGMP-inhibited PDE
- inhibition at 10 µM ([3]; read-out: inhibition of PDE in cilia): < 10%

Now from value to compound, other results behind:

- reduction of PDE activity ([1]; 100 μM Ca^2+): about 15%
- reduction of PDE activity ([1]; 100 μM EGTA): about 30%
- inhibition at 10 µM ([3]; 10 μM drug, regardless of assay conditions, read-out: inhibition of PDE in cilia): < 10%
Compound: CC1CC(=O)NN=C1c1ccc(-n2ccnc2)cc1 (stereo not drawn) [CI 930]
- selectivity for cGMP-inhibited PDE [2]: selective for cGMP-inhibited PDE

- maximal enhancement of cAMP hydrolysis by cGMP ([1]; olfactory mucosa, 1 μM cGMP, 10 μM cAMP, 100 μM EGTA): 20-30%
- effect of cGMP on cAMP hydrolysis when Ca^2+ and calmodulin are added ([5]; cilia and olfactory mucosa, Ca^2+ and calmodulin added): diminishes markedly
- maximal enhancement of cAMP hydrolysis by cGMP ([5]; cilia, 1 μM cGMP, 10 μM cAMP, 100 μM EGTA): 20-30%
Compound: Nc1nc2c(ncn2[C@@H]2O[C@@H]3COP(=O)(O)O[C@H]3[C@H]2O)c(=O)[nH]1 [cGMP]

- inhibition of cAMP hydrolysis ([1]; olfactory mucosa, 100 μM EGTA): 64%
- inhibition of cGMP hydrolysis [1, 7]: about 20%
- inhibition at 10 µM ([3]; 10 μM drug, 1 μM cGMP, presence or absence of Ca^2+, read-out: inhibition of ciliary cGMP PDE): 15 to 20%
- inhibition at 10 µM ([6]; read-out: inhibition of ciliary cAMP PDE): 15 to 20%
Compound: CCCCn1c(=O)c2c(ncn2CC(C)=O)n(CCCC)c1=O [denbufylline]
- selective inhibition of the high affinity cAMP-selective form of PDE [4]: selectively inhibit the high affinity cAMP-selective form of PDE

- inhibition of cAMP hydrolysis ([1]; olfactory mucosa, 100 μM EGTA): 49%
Compound: COc1ccc(C2CNC(=O)C2)cc1OC1CCCC1 (stereo not drawn) [rolipram]
- inhibition of cGMP hydrolysis [1, 7]: Neither 10 μM rolipram nor 10 μM Ro20-1724 inhibit cGMP hydrolysis
- inhibition of PDE in cilia [3, 8]: neither rolipram (10 μM) nor Ro20-1724 (10 μM) inhibit PDE
- selective inhibition of the high affinity cAMP-selective form of PDE [4]: selectively inhibited; also recorded: selectively inhibit the high affinity cAMP-selective form of PDE

- EC50 ([3]; cilia, 1 μM cGMP, read-out: half maximal stimulation of PDE activity by calmodulin): 10 nM
- EC50 ([6]; cilia, 1 μM cAMP, read-out: half maximal stimulation of PDE activity by calmodulin): 10 nM
Compound: calmodulin
- effect of calmodulin on stimulation of enzyme activity by Ca^2+ ([1]; mucosal homogenates, 1 μM cAMP or cGMP): further enhances the stimulation of enzyme activity by Ca^2+
